Test results taken from PMC10766639, “Synthesis, in vitro potency of inhibition, enzyme kinetics and in silico studies of quinoline-based α-glucosidase inhibitors” (Scientific Reports, 2024).
Read-outs that look alike come from different tables or passages of the source.

Tests used:
[1] = Concentrations of precipitation; type: physicochemical
From the text: Table 1 α-Glucosidase inhibitory activity of compounds 8a–t. | column: Concentrations of precipitation (µM)

[2] = molecular target: Saccharomyces cerevisiae α-glucosidase enzyme (EC. 3. 2. 1. 20) (Saccharomyces cerevisiae, UniProt P38158); assay: In vitro α-glucosidase inhibitory activity; type: biochemical
Sequence of Saccharomyces cerevisiae α-glucosidase enzyme (EC. 3. 2. 1. 20) (P38158 whole entry): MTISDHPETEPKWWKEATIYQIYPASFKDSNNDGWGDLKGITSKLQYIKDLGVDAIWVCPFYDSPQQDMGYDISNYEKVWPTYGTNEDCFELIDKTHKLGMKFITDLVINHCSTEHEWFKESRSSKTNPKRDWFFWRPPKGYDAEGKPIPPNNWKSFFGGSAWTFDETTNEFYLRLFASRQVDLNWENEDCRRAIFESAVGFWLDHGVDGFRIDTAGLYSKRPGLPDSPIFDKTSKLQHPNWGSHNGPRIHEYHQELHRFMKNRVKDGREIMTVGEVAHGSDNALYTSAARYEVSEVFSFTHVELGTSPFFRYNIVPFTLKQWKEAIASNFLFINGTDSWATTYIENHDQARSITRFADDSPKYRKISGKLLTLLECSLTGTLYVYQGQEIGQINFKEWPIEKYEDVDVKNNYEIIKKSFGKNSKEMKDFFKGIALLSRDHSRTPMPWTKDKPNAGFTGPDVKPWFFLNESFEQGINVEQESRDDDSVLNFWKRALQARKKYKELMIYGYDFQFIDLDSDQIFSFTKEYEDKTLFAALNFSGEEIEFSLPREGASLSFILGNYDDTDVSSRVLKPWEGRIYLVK
From the text: In order to conduct the enzyme assay, the Saccharomyces cerevisiae α-glucosidase enzyme (EC. 3. 2. 1. 20) have been used.

α-glucosidase [3] = molecular target: α-glucosidase; set-up: method as in PMID 36782003, PMID 35982225, PMID 36928433, PMID 37188744, doi:10.1039/C5MD00280J; conditions: cited from earlier work
α-glucosidase [4] = molecular target: α-glucosidase (Saccharomyces cerevisiae, UniProt P38158); assay: Enzyme kinetic study (Lineweaver–Burk plot); type: biochemical
Sequence of α-glucosidase (Saccharomyces cerevisiae, UniProt P38158) (P38158 whole entry): as above
From the text: A Lineweaver–Burk plot was generated to recognize the type of inhibition and the Michaelis–Menten constant (Km) value was defined from the plot between the reciprocal of the substrate concentration (1/[S]) and reciprocal of enzyme rate (1/V) over different concentrations of inhibitor.

For `O=C(CSc1nc2ccccc2cc1-c1nc2ccccc2s1)Nc1ccccc1F` [Compound 8g, 2-((3-(benzo[d]thiazol-2-yl)quinolin-2-yl)thio)-N-(2-fluorophenyl)acetamide], the Concentrations of precipitation [1] was > 90 µM, the melting point was 201 to 203 °C and the IC50 [2] was 198.5 ± 0.9 µM.
For `Cc1ccc(NC(=O)CSc2nc3ccccc3cc2-c2nc3ccccc3s2)cc1` [Compound 8c, 2-((3-(benzo[d]thiazol-2-yl)quinolin-2-yl)thio)-N-(p-tolyl)acetamide], the Concentrations of precipitation [1] was > 90 µM and the IC50 [2] was 384.3 ± 0.3 µM.
With `Cc1ccccc1NC(=O)CSc1nc2ccccc2cc1-c1nc2ccccc2s1` [Compound 8b, 2-((3-(benzo[d]thiazol-2-yl)quinolin-2-yl)thio)-N-(o-tolyl)acetamide] the Concentrations of precipitation [1] was > 90 µM, the melting point was 211 to 213 °C and the IC50 [2] was 79.9 ± 1.2 µM. The “Potency compared to para-isomer (8c)” value ([2]; α-glucosidase, more potent than 8c) was “fivefold”.
With `O=C(CSc1nc2ccccc2cc1-c1nc2ccccc2s1)Nc1ccc(Br)cc1` [Compound 8l, 2-((3-(benzo[d]thiazol-2-yl)quinolin-2-yl)thio)-N-(4-bromophenyl)acetamide] the Concentrations of precipitation [1] was > 90 µM and the IC50 [2] was 182.7 ± 1 µM.
In the case of “2-((3-(benzo[d]thiazol-2-yl)quinolin-2-yl)thio)-N-(4-methyl-2-nitrophenyl)acetamide [Compound 8n]”, the Concentrations of precipitation [1] is reported as > 90 µM and the IC50 ([2]; α-glucosidase, mean ± SD of three independent determinations of triplicate samples, read-out: IC50) is reported as 65.9 ± 1 µM.
For `O=C(CSc1nc2ccccc2cc1-c1nc2ccccc2s1)Nc1ccc([N+](=O)[O-])cc1` [Compound 8m, 2-((3-(benzo[d]thiazol-2-yl)quinolin-2-yl)thio)-N-(4-nitrophenyl)acetamide], the Concentrations of precipitation [1] was > 90 µM, the melting point was 209 to 211 °C and the IC50 [2] was 198.9 ± 1.5 µM.
In the case of `CCc1ccc(NC(=O)CSc2nc3ccccc3cc2-c2nc3ccccc3s2)cc1` [Compound 8d, 2-((3-(benzo[d]thiazol-2-yl)quinolin-2-yl)thio)-N-(4-ethylphenyl)acetamide], the Concentrations of precipitation [1] is reported as > 90 µM and the IC50 [2] is reported as 194.4 ± 0.8 µM.
For `O=C(N/N=C/c1cc(O)c(O)cc1O)c1ccc(-c2nnc(-c3ccc4ncccc4c3)o2)cc1` [A], the IC50 (α-glucosidase [3]; Fig. 2, study of compound A with its acarbose standard) is listed as 2.6 ± 0.01 µM.
For `O=C(N/N=C/c1ccc(Cl)cc1)c1ccc(-c2nc3ccccc3s2)cc1` [F], the IC50 (α-glucosidase [3]; Fig. 2, study of compound F with its acarbose standard) is given as 5.31 ± 0.03 µM.
With `Cc1ccc(CNC(=O)CSc2nc3ccccc3cc2-c2nc3ccccc3s2)cc1` [Compound 8r, 2-((3-(benzo[d]thiazol-2-yl)quinolin-2-yl)thio)-N-(4-methylbenzyl)acetamide] the Concentrations of precipitation [1] was > 90 µM, the melting point was 182 to 184 °C and the IC50 [2] was 161.4 ± 0.4 µM.
With `O=C(CSc1nc2ccccc2cc1-c1nc2ccccc2s1)NCc1ccccc1` [Compound 8q, 2-((3-(benzo[d]thiazol-2-yl)quinolin-2-yl)thio)-N-benzylacetamide] the Concentrations of precipitation [1] was > 90 µM and the IC50 [2] was 255.6 ± 0.3 µM.
In the case of `Cc1cccc(C)c1NC(=O)CSc1nc2ccccc2cc1/C=N/NC(=O)c1ccccc1` [D], the IC50 (α-glucosidase [3]; Fig. 2, study of compound D with its acarbose standard) is given as 14 ± 0.6 µM.
With `O=C(CSc1nc2ccccc2cc1-c1nc2ccccc2s1)Nc1ccc(Cl)cc1` [Compound 8k, 2-((3-(benzo[d]thiazol-2-yl)quinolin-2-yl)thio)-N-(4-chlorophenyl)acetamide] the Concentrations of precipitation [1] was > 90 µM and the IC50 [2] was 145 ± 1.5 µM.
For `O=C(CSc1nc2ccccc2cc1-c1nc2ccccc2s1)Nc1cccc2ccccc12` [Compound 8p, 2-((3-(benzo[d]thiazol-2-yl)quinolin-2-yl)thio)-N-(naphthalen-1-yl)acetamide], the Concentrations of precipitation [1] was > 90 µM, the melting point was 198 to 200 °C and the IC50 [2] was 139.8 ± 1 µM.
In the case of `O=C(CSc1nc2ccccc2cc1-c1nc2ccccc2s1)Nc1ccccc1Cl` [Compound 8i, 2-((3-(benzo[d]thiazol-2-yl)quinolin-2-yl)thio)-N-(2-chlorophenyl)acetamide], the Concentrations of precipitation [1] is reported as > 90 µM, the melting point is reported as 221 to 223 °C and the IC50 [2] is reported as 118 ± 1.4 µM.
For `Oc1ccc(-c2nnc(-c3ccc(-c4nc5ccccc5s4)cc3)o2)cc1O` [E], the IC50 (α-glucosidase [3]; Fig. 2, study of compound E with its acarbose standard) is listed as 0.5 ± 0.01 µM.
In the case of `O=C(CSc1nc2ccccc2cc1-c1nc2ccccc2s1)Nc1ccc(F)cc1` [Compound 8h, 2-((3-(benzo[d]thiazol-2-yl)quinolin-2-yl)thio)-N-(4-fluorophenyl)acetamide], the Concentrations of precipitation [1] is reported as > 90 µM, the IC50 [2] is reported as 38.2 ± 0.3 µM and the Type of inhibition (α-glucosidase [4]; Lineweaver–Burk plot) is reported as “non-competitive inhibition”. The Ki (α-glucosidase [4]; read-out: Ki (inhibition constant)) was 38.2 µM.
With `Cc1cccc(NC(=O)CSc2nc3ccccc3cc2-c2nc3ccccc3s2)c1C` [Compound 8e, 2-((3-(benzo[d]thiazol-2-yl)quinolin-2-yl)thio)-N-(2,3-dimethylphenyl)acetamide] the Concentrations of precipitation [1] was > 90 µM and the IC50 [2] was 130.4 ± 0.5 µM.
In the case of `O=C(CSc1nc2ccccc2cc1-c1nc2ccccc2s1)NCc1ccc(F)cc1` [Compound 8s, 2-((3-(benzo[d]thiazol-2-yl)quinolin-2-yl)thio)-N-(4-fluorobenzyl)acetamide], the Concentrations of precipitation [1] is reported as > 90 µM, the melting point is reported as 213 to 215 °C and the IC50 [2] is reported as 130.1 ± 0.7 µM. The “Less activity compared to phenyl one” value ([2]; α-glucosidase, para-fluoro benzyl less active than para-fluoro phenyl) was “about threefold”.
For `Cc1cccc(C)c1NC(=O)CSc1nc2ccccc2cc1-c1nc2ccccc2s1` [Compound 8f, 2-((3-(benzo[d]thiazol-2-yl)quinolin-2-yl)thio)-N-(2,6-dimethylphenyl)acetamide], the Concentrations of precipitation [1] was > 90 µM and the IC50 [2] was 231.6 ± 0.7 µM.
In the case of `O=C(CSc1nc2ccccc2cc1-c1nc2ccccc2[nH]1)Nc1cccc(Cl)c1` [C], the IC50 (α-glucosidase [3]; Fig. 2, study of compound C with its acarbose standard) is given as 3.2 ± 0.3 µM.
With `O=C(CSc1nc2ccccc2cc1-c1nc2ccccc2s1)Nc1ccccc1` [Compound 8a, 2-((3-(benzo[d]thiazol-2-yl)quinolin-2-yl)thio)-N-phenylacetamide] the Concentrations of precipitation [1] was > 90 µM and the IC50 [2] was 299 ± 0.1 µM.
With `O=C(CSc1nc2ccccc2cc1-c1nc2ccccc2s1)NCCc1ccccc1` [Compound 8t, 2-((3-(benzo[d]thiazol-2-yl)quinolin-2-yl)thio)-N-phenethylacetamide] the Concentrations of precipitation [1] was > 90 µM, the melting point was 225 to 227 °C and the IC50 [2] was 222.7 ± 0.9 µM.
With `O=C(CSc1nc2ccccc2cc1-c1nc2ccccc2s1)Nc1ncc([N+](=O)[O-])s1` [Compound 8o, 2-((3-(benzo[d]thiazol-2-yl)quinolin-2-yl)thio)-N-(5-nitrothiazol-2-yl)acetamide] the Concentrations of precipitation [1] was > 90 µM, the melting point was 199 to 201 °C and the IC50 [2] was 47.2 ± 0.6 µM.
For `O=C(CSc1nc2ccccc2cc1-c1nc2ccccc2s1)Nc1cccc(Cl)c1` [Compound 8j, 2-((3-(benzo[d]thiazol-2-yl)quinolin-2-yl)thio)-N-(3-chlorophenyl)acetamide], the Concentrations of precipitation [1] was > 90 µM and the IC50 [2] was 111.7 ± 1.1 µM.
